Assay results: patent US7462615B2, “Inhibitors of cysteine proteases, the pharmaceutical compositions thereof and their therapeutic applications” (Hybrigenics SA, priority 2005, dated 2008)
Several values for one entry are separate records, joined by “and”; a condition that tells them apart may be missing. Equal values may be shown once.

Legend:
Cathepsin B = Cathepsin B (Homo sapiens, UniProt P07858); assay: Cathepsin B Activity Assay; assay type: biochemical; settings: 36 μM z-RR-AMC; 3.6 nM enzyme; pre-incubated 30 minutes at 25° C., 60 minutes at 37° C.; sigmoidal fit; read-out: Cathepsin B (Inhibition of cysteine protease activities)
Procedure: Cathepsin B was diluted in Cathepsin B buffer (20 mM Tris HCl pH 6.8; 1 mM EDTA; 1 mM DTT). Compounds stocks (100 mM) were stored at −20° C. in DMSO. Compounds were tested at the following final concentrations: 100 μM; 33.3 μM; 11.1 μM; 3.7 μM; 1.23 μM; 412 nM; 137 nM; 45.7 nM; 15.2 nM; 5 nM. Reactions were performed as duplicates in Black LJL 96 well plates (HE microplates; Molecular Devices; 20 μl final reaction volume). The substrate concentration for cathepsin B specificity assay was 36 μM (z-RR-AMC; Calbiochem). The concentration of the enzyme (Cathepsin B) in specificity assays was 3.6 nM. The concentrations were determined in order to perform specificity assays under initial velocities at fixed substrate concentration. Compounds were pre-incubated with enzymes for 30 minutes at 25° C. Reactions were initiated by addition of substrate to the plates containing the enzymes (+/− compounds) diluted in assay buffer. Reactions were incubated for 60 minutes at 37° C. Reactions were stopped by adding acetic acid (100 mM final). Readings were performed on a Pherastar Fluorescent Reader (BMG). δ […]. Data (mean values +/− standard deviation) were analyzed as % of control (no compound) and plotted as percentage versus the Log of the compound concentration using GraphPad (Prism). Data were fitted to a sigmoidal model (variable slope).

Caspase 3 = molecular target: T1, Caspase 3 (Homo sapiens, UniProt P42574); assay: Caspase 3 Activity Assay; assay type: biochemical; settings: 500 nM Ac-DEVD-AMC; 3.2 nM enzyme; pre-incubated 30 minutes at 25° C., 60 minutes at 37° C.; sigmoidal fit; read-out: Caspase 3 (Inhibition of cysteine protease activities)
T1 sequence (P42574 29-175 limits assumed): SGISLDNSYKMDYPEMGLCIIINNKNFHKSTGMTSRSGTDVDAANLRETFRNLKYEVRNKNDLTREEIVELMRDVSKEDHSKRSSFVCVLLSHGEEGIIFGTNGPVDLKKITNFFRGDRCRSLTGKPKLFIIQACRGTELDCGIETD
T1 sequence (P42574 176-277 limits assumed): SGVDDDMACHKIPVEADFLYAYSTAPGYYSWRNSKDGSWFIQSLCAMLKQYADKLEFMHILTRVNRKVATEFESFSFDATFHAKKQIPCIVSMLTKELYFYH
Procedure: Caspase 3 was diluted in Caspase B buffer (100 mM Hepes pH 7.5; 10% sucrose; 0.1% CHAPS). Compounds stocks (100 mM) were stored at −20° C. in DMSO. Compounds were tested at the following final concentrations: 100 μM; 33.3 μM; 11.1 μM; 3.7 μM; 1.23 μM; 412 nM; 137 nM; 45.7 nM; 15.2 nM; 5 nM. Reactions were performed as duplicates in Black LJL 96 well plates (HE microplates; Molecular Devices; 20 μl final reaction volume). The substrate concentration for caspase 3 specificity assay was 500 nM (Ac-DEVD-AMC; Promega). The concentration of the enzyme (Caspase 3) in specificity assays was 3.2 nM. The concentrations were determined in order to perform specificity assays under initial velocities at fixed substrate concentration. Compounds were pre-incubated with enzymes for 30 minutes at 25° C. Reactions were initiated by addition of substrate to the plates containing the enzymes (+/− compounds) diluted in assay buffer. Reactions were incubated for 60 minutes at 37° C. Reactions were stopped by adding acetic acid (100 mM final) Readings were performed on a Pherastar Fluorescent Reader (BMG). δ Emission 380 nm; δ Excitation=460 nm. Data (mean values +/− standard deviation) were analyzed as % of control (no compound) and plotted as percentage versus the Log of the compound concentration using GraphPad (Prism). Data were fitted to a sigmoidal model (variable slope).

Row | Compound | IC50 (Cathepsin B) [nM] | IC50 (Caspase 3)
1 | Nc1nnc2nc3c(nn12)C(=O)c1ccccc1-3 [Example 1c/A, 1-Amino-2,3,4,10,10a-pentaaza-cyclopenta[b]fluoren-9-one] | 5000 | 3700 nM
2 | CCc1nnc2nc3c(nn12)C(=O)c1ccccc1-3 [Example 1d/A, 1-Ethyl-2,3,4,10,10a-pentaaza-cyclopenta[b]fluoren-9-one] |  | 11600 nM
3 | CCc1nnc2nc3c(nn12)-c1ccccc1C3=O [Example 1d/B, 3-Ethyl-1,2,3a, 4,10-pentaaza-cyclopenta[b]fluoran-9-one] | 150 | 212 nM and 467 nM
4 | CCCc1nnc2nc3c(nn12)C(=O)c1ccccc1-3 [Example 1e/A, 1-Propyl-2,3,4,10,10a-pentaaza-cyclopenta[b]fluoren-9-one] | 5410 | > 100000 nM
5 | CCCc1nnc2nc3c(nn12)-c1ccccc1C3=O [Example 1e/B, 3-Propyl-1,2,3a, 4,10-pentaaza-cyclopenta[b]fluoren-9-one] | 267 | 727 nM
6 | CCCCc1nnc2nc3c(nn12)C(=O)c1ccccc1-3 [Example 1f/A, 1-Butyl-2,3,4,10,10a-pentaaza-cyclopenta[b]fluoren-9-one] | 6500 | 4600 nM
7 | CCCCc1nnc2nc3c(nn12)-c1ccccc1C3=O [Example 1f/B, 3-Butyl-1,2,3a,4,10-pentaaza-cyclopenta[b]fluoren-9-one] | 233 | 475 nM
8 | CC(C)Cc1nnc2nc3c(nn12)C(=O)c1ccccc1-3 [Example 1g/A, 1-Isobutyl-2,3,4,10,10a-pentaaza-cyclopenta[b]fluoren-9-one] | 4620 | > 100000 nM
9 | O=C1c2ccccc2-c2nn3c(CO)nnc3nc21 [Example 1h/B] | 547 | 1020 nM
10 | COCc1nnc2nc3c(nn12)-c1ccccc1C3=O [Example 1i/B, 3-Methoxymethyl-1,2,3a, 4,10-pentaaza-cyclopenta[b]fluoren-9-one] | 314 | 556 nM
11 | O=C1c2ccccc2-c2nc3nnc(C4CC4)n3nc21 [Example 1j/A, 1-Cyclopropyl-2,3,4,10,10a-pentaaza-cyclopenta[b]fluoren-9-one] |  | 1900 nM
12 | O=C1c2ccccc2-c2nn3c(C4CC4)nnc3nc21 [Example 1j/B, 3-Cyclopropyl-1,2,3a,4,10-pentaaza-cyclopenta[b]fluoren-9-one] | 181 | 188 nM
13 | O=C1c2ccccc2-c2nc3nnc(Cc4ccccc4)n3nc21 [Example 1k/A, 1-Benzyl-2,3,4,10,10a-pentaaza-cyclopenta[b]fluoren-9-one] |  | 598 nM
14 | O=C1c2ccccc2-c2nn3c(Cc4ccccc4)nnc3nc21 [Example 1k/B, 3-Benzyl-1,2,3a,4,10-pentaaza-cyclopenta[b]fluoren-9-one] | 363 | 164 nM
15 | Cn1nc2nc3c(nc2n1)-c1ccccc1C3=O [Example 4a, 2-Methyl-2H-1,2,3,4,10-pentaaza-cyclopenta[b]fluoren-9-one] | > 100000 | 

Next, values leading:

Row | IC50 (Cathepsin B) [nM] | IC50 (Caspase 3) | Compound
16 | 17400 | 1510 nM | 6-(7)-Chloro-1-methyl-2,3,4,10,10a-pentaaza-cyclopenta[b]fluoren-9-one [Example 3/A]
17 | 24000 | 4100 nM | Cc1nnc2nc3c(nn12)C(=O)c1ccccc1-3 [Example 1b/A, 1-Methyl-2,3,4,10,10a-pentaaza-cyclopenta[b]fluoren-9-one]
18 | 182 | 424 nM | Cc1nnc2nc3c(nn12)-c1ccccc1C3=O [Example 1b/B, 3-Methyl-1,2,3a,4,10-pentaaza-cyclopenta[b]fluoren-9-one]
19 | 103 |  | Nc1nnc2nc3c(nn12)-c1ccccc1C3=O [Example 1c/B, 3-Amino-1,2,3a,4,10-pentaaza-cyclopenta[b]fluoren-9-one]
20 | 264 | 629 nM | CC(C)Cc1nnc2nc3c(nn12)-c1ccccc1C3=O [Example 1g/B, 3-Isobutyl-1,2,3a,4,10-pentaaza-cyclopenta[b]fluoren-9-one]
21 | 30000 | 3900 nM | O=C1c2ccccc2-c2nc3nnc(CO)n3nc21 [Example 1h/A, 1-Hydroxymethyl-2,3,4,10,10a-pentaaza-cyclopenta[b]fluoren-9-one]
22 | 1020 | 926 nM | COCc1nnc2nc3c(nn12)C(=O)c1ccccc1-3 [Example 1i/A, 1-Methoxymethyl-2,3,4,10,10a-pentaaza-cyclopenta[b]fluoren-9-one]
23 | 147 | 743 nM | Cc1nnc2nc3c(nn12)-c1ccc(Cl)cc1C3=O [Example 3/B, 7-Chloro-3-methyl-1,2,3a, 4,10-pentaaza-cyclopenta[b]fluoren-9-one]
